Drawing on PubChem BioAssay AID256 (DTP/NCI, 2004), this text covers T/C for eleven compounds.

Each structure is given as a SMILES string. Several values for one entry are separate records, joined by “and”; a condition that tells them apart may be missing. Equal values may be shown once. Inconclusive results and toxic doses are left out.

The test concerns CD2F1 mice, L1210 leukemia ip, survival T/C. The experiment in a line: NCI In Vivo Anticancer Drug Screen. Data for tumor model L1210 Leukemia (intraperitoneal) in CD2F1 (CDF1) mice. The settings on record: higher = longer survival. The procedure, abridged:
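Each value reflects a quotient of treated over vehicle control outcomes in mice with a transplanted tumor.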

In the case of `CCOC(=O)c1ccc(NC/C(CN)=N/O)cc1`, the T/C reads like this: (endpoint: mean survival time, dose: 75.0 mg/kg/injection, schedule: Q01DX001 (ip), vehicle: other) 95 % of control; (endpoint: mean survival time, dose: 150.0 mg/kg/injection, schedule: Q01DX001 (ip), vehicle: other) 95 % of control.

For `O=C(OCc1ccccc1)C(Cl)(Cl)Cl`, the T/C is, setting by setting: (endpoint: mean survival time, dose: 100.0 mg/kg/injection, schedule: Q04DX003 (ip), vehicle: saline with Tween-80) 107 % of control; (endpoint: mean survival time, dose: 200.0 mg/kg/injection, schedule: Q04DX003 (ip), vehicle: saline with Tween-80) 103 % of control; (endpoint: mean survival time, dose: 400.0 mg/kg/injection, schedule: Q04DX003 (ip), vehicle: saline with Tween-80) 96 % of control.

For the compound `CC(=O)NC(C)NC(C)=O`, the T/C is 103 % of control (endpoint: mean survival time, dose: 100.0 mg/kg/injection, schedule: Q01DX001 (ip), vehicle: saline); 103 % of control (endpoint: mean survival time, dose: 200.0 mg/kg/injection, schedule: Q01DX001 (ip), vehicle: saline); 103 % of control (endpoint: mean survival time, dose: 400.0 mg/kg/injection, schedule: Q01DX001 (ip), vehicle: saline).

As to `Nc1nc(Cl)c2nnn(C3CC(O)C(CO)C3)c2n1` (centres undefined), the T/C is 117 % of control (endpoint: mean survival time, dose: 6.25 mg/kg/injection, schedule: Q01DX009 (ip), vehicle: Klucel (hydroxypropylcellulose) (HPC)); 106 % of control (endpoint: mean survival time, dose: 12.5 mg/kg/injection, schedule: Q01DX009 (ip), vehicle: Klucel (hydroxypropylcellulose) (HPC)); 117 % of control (endpoint: mean survival time, dose: 25.0 mg/kg/injection, schedule: Q01DX009 (ip), vehicle: Klucel (hydroxypropylcellulose) (HPC)).

Regarding `COc1ccc(NC(=O)Nc2cc(Cl)c(OC)cc2OC)cc1`, the T/C is 93 % of control (endpoint: mean survival time, dose: 100.0 mg/kg/injection, schedule: Q04DX002 (ip), vehicle: saline with Tween-80) and 86 % of control (endpoint: mean survival time, dose: 200.0 mg/kg/injection, schedule: Q04DX002 (ip), vehicle: saline with Tween-80).

In the case of `COc1cc([C@@H]2c3cc4c(cc3[C@@H](OC3OC5CO[C@@H](c6cccs6)OC5C(O)C3O)[C@H]3COC(=O)[C@H]23)OCO4)cc(OC)c1O` (some centres undefined), the T/C is 115 % of control (endpoint: mean survival time, dose: 0.25 mg/kg/injection, schedule: Q01DX009 (ip), vehicle: saline); 152 % of control (endpoint: mean survival time, dose: 0.25 mg/kg/injection, schedule: Q03HX016 (ip), vehicle: saline); 169 % of control and 173 % of control (endpoint: mean survival time, dose: 0.25 mg/kg/injection, schedule: Q03HX024 (ip), vehicle: saline); 110 % of control (endpoint: mean survival time, dose: 0.5 mg/kg/injection, schedule: Q01DX009 (sc), vehicle: saline); 164 % of control (endpoint: mean survival time, dose: 0.5 mg/kg/injection, schedule: Q03HX008 (ip), vehicle: saline); 246 % of control (endpoint: mean survival time, dose: 0.5 mg/kg/injection, schedule: Q03HX016 (ip), vehicle: saline). The T/C reads like this: (endpoint: mean survival time, dose: 0.5 mg/kg/injection, schedule: Q03HX024 (ip), vehicle: saline) 256 % of control and 323 % of control; (endpoint: mean survival time, dose: 1.0 mg/kg/injection, schedule: Q01DX005 (ip), vehicle: saline) 153 % of control; (endpoint: mean survival time, dose: 1.0 mg/kg/injection, schedule: Q01DX009 (ip), vehicle: saline) 123 % of control and 231 % of control and 106 % of control; (endpoint: mean survival time, dose: 1.0 mg/kg/injection, schedule: Q03HX008 (ip), vehicle: saline) 192 % of control; (endpoint: mean survival time, dose: 1.0 mg/kg/injection, schedule: Q03HX016 (ip), vehicle: saline) 544 % of control; (endpoint: mean survival time, dose: 1.0 mg/kg/injection, schedule: Q03HX024 (ip), vehicle: saline) 441 % of control and 514 % of control. For the same compound, the T/C (endpoint: mean survival time, dose: 2.0 mg/kg/injection, schedule: Q01DX001 (sc), vehicle: saline) is 113 % of control; the T/C (endpoint: mean survival time, dose: 2.0 mg/kg/injection, schedule: Q01DX005 (ip), vehicle: saline) was 204 % of control; the T/C (endpoint: mean survival time, dose: 2.0 mg/kg/injection, schedule: Q01DX009 (ip), vehicle: saline) was 202 % of control and 109 % of control; the T/C (endpoint: mean survival time, dose: 2.0 mg/kg/injection, schedule: Q01DX009 (oral), vehicle: saline) was 114 % of control; the T/C (endpoint: mean survival time, dose: 2.0 mg/kg/injection, schedule: Q01DX009 (sc), vehicle: saline) is 166 % of control; the T/C (endpoint: mean survival time, dose: 2.0 mg/kg/injection, schedule: Q03HX008 (ip), vehicle: saline) was 173 % of control. The T/C (endpoint: mean survival time, dose: 2.0 mg/kg/injection, schedule: Q03HX016 (ip), vehicle: saline) was 313 % of control; the T/C (endpoint: mean survival time, dose: 2.0 mg/kg/injection, schedule: Q03HX024 (ip), vehicle: saline) is 89 % of control; the T/C (endpoint: mean survival time, dose: 4.0 mg/kg/injection, schedule: Q01DX001 (ip), vehicle: saline) is 158 % of control; the T/C (endpoint: mean survival time, dose: 4.0 mg/kg/injection, schedule: Q01DX001 (sc), vehicle: saline) was 123 % of control; the T/C (endpoint: mean survival time, dose: 4.0 mg/kg/injection, schedule: Q01DX005 (ip), vehicle: saline) is 87 % of control; the T/C (endpoint: mean survival time, dose: 4.0 mg/kg/injection, schedule: Q01DX009 (ip), vehicle: saline) was 210 % of control and 112 % of control. In addition, the T/C (endpoint: mean survival time, dose: 4.0 mg/kg/injection, schedule: Q01DX009 (sc), vehicle: saline) was 102 % of control; the T/C (endpoint: mean survival time, dose: 4.0 mg/kg/injection, schedule: Q04DX003 (ip), vehicle: saline) is 209 % of control; the T/C (endpoint: mean survival time, dose: 4.0 mg/kg/injection, schedule: Q08DX002 (ip), vehicle: saline) is 164 % of control; the T/C (endpoint: mean survival time, dose: 8.0 mg/kg/injection, schedule: Q01DX001 (ip), vehicle: saline) was 239 % of control; the T/C (endpoint: mean survival time, dose: 8.0 mg/kg/injection, schedule: Q01DX001 (oral), vehicle: saline) was 122 % of control; the T/C (endpoint: mean survival time, dose: 8.0 mg/kg/injection, schedule: Q01DX009 (oral), vehicle: saline) is 102 % of control. Further, the T/C is 169 % of control and 251 % of control (endpoint: mean survival time, dose: 8.0 mg/kg/injection, schedule: Q04DX003 (ip), vehicle: saline); 346 % of control (endpoint: mean survival time, dose: 8.0 mg/kg/injection, schedule: Q08DX002 (ip), vehicle: saline); 254 % of control (endpoint: mean survival time, dose: 16.0 mg/kg/injection, schedule: Q01DX001 (ip), vehicle: saline); 153 % of control (endpoint: mean survival time, dose: 16.0 mg/kg/injection, schedule: Q01DX001 (sc), vehicle: saline); 87 % of control (endpoint: mean survival time, dose: 32.0 mg/kg/injection, schedule: Q01DX001 (ip), vehicle: saline); 156 % of control (endpoint: mean survival time, dose: 32.0 mg/kg/injection, schedule: Q01DX001 (sc), vehicle: saline). In addition, the T/C by setting is: (endpoint: mean survival time, dose: 32.0 mg/kg/injection, schedule: Q04DX003 (ip), vehicle: saline) 454 % of control; (endpoint: mean survival time, dose: 32.0 mg/kg/injection, schedule: Q08DX002 (ip), vehicle: saline) 114 % of control.

With `CCC1CN2CCc3cc(OC)c(OC)cc3C2CC1CC1c2cc(OC)c(OC)cc2CCN1C(=O)C(Cc1c[nH]c2ccccc12)NC(=O)OC(C)(C)C` (centres undefined), the T/C is 93 % of control (endpoint: mean survival time, dose: 8.0 mg/kg/injection, schedule: Q04DX003 (ip), vehicle: saline with Tween-80); 95 % of control (endpoint: mean survival time, dose: 16.0 mg/kg/injection, schedule: Q04DX003 (ip), vehicle: saline with Tween-80); 98 % of control (endpoint: mean survival time, dose: 32.0 mg/kg/injection, schedule: Q04DX003 (ip), vehicle: saline with Tween-80); 89 % of control (endpoint: mean survival time, dose: 64.0 mg/kg/injection, schedule: Q04DX003 (ip), vehicle: saline with Tween-80); 87 % of control (endpoint: mean survival time, dose: 128.0 mg/kg/injection, schedule: Q04DX003 (ip), vehicle: saline with Tween-80).

`OC12CC(C(F)(F)F)(C(F)(F)F)OC1(O)CC(C(F)(F)F)(C(F)(F)F)O2` (centres undefined): the T/C is 95 % of control (endpoint: mean survival time, dose: 50.0 mg/kg/injection, schedule: Q01DX009 (ip), vehicle: saline with Tween-80); 95 % of control (endpoint: mean survival time, dose: 100.0 mg/kg/injection, schedule: Q01DX009 (ip), vehicle: saline with Tween-80); 95 % of control (endpoint: mean survival time, dose: 200.0 mg/kg/injection, schedule: Q01DX009 (ip), vehicle: saline with Tween-80).

For `CS(=O)(=O)OC1CS(=O)(=O)Cc2ccccc21` (centres undefined), the T/C reads like this: (endpoint: mean survival time, dose: 100.0 mg/kg/injection, schedule: Q01DX001 (ip), vehicle: carboxymethylcellulose (CMC)) 101 % of control; (endpoint: mean survival time, dose: 200.0 mg/kg/injection, schedule: Q01DX001 (ip), vehicle: carboxymethylcellulose (CMC)) 101 % of control; (endpoint: mean survival time, dose: 400.0 mg/kg/injection, schedule: Q01DX001 (ip), vehicle: carboxymethylcellulose (CMC)) 101 % of control.

As for `O=C(O)c1cn(C2OC(CO)C(O)C2O)c2nc[nH]c(=O)c12` (centres undefined), the T/C runs as follows: (endpoint: median survival time, dose: 8.63 mg/kg/injection, schedule: Q01DX005 (ip), vehicle: saline with Tween-80) 103 % of control; (endpoint: median survival time, dose: 17.25 mg/kg/injection, schedule: Q01DX005 (ip), vehicle: saline with Tween-80) 101 % of control; (endpoint: median survival time, dose: 34.5 mg/kg/injection, schedule: Q01DX005 (ip), vehicle: saline with Tween-80) 108 % of control; (endpoint: median survival time, dose: 69.0 mg/kg/injection, schedule: Q01DX005 (ip), vehicle: saline with Tween-80) 104 % of control; (endpoint: median survival time, dose: 138.0 mg/kg/injection, schedule: Q01DX005 (ip), vehicle: saline with Tween-80) 110 % of control.

As to `CCC(Cc1ccccc1)C1=NC(C)(C)CC(C)O1` (centres undefined), the T/C (endpoint: mean survival time, dose: 100.0 mg/kg/injection, schedule: Q01DX001 (ip), vehicle: saline with Tween-80) was 97 % of control and the T/C (endpoint: mean survival time, dose: 200.0 mg/kg/injection, schedule: Q01DX001 (ip), vehicle: saline with Tween-80) is 89 % of control.
